In ChEMBL document CHEMBL4038345, “Design, Synthesis, and Biological Evaluation of Novel Selenium-Containing Isocombretastatins and Phenstatins as Antitumor Agents” (J Med Chem, 2017):
Calls of active or inactive are those of the source. The rule behind the calls is not given here.

How the values were obtained:
A549 [1] = test: Induction of apoptosis in human A549 cells assessed as late apoptotic cells at 1 nM for 24 hrs by annexin V-FITC/propidium iodide staining-based flow cytometry analysis; format: functional
[2] = Metabolic stability in Sprague-Dawley rat liver microsomes assessed as compound remaining after 60 mins in presence of NADPH by UV-based HPLC-MS/MS analysis; format: ADME, microsome; conditions: read-out: Stability
A549 [3] = test: Disruption of mitochondrial membrane potential in human A549 cells assessed as intact mitochondrial membrane at 10 nM after 24 hrs by JC1 staining-based flow cytometry method (reference value: 99.18%); format: functional
A549 [4] = test: Induction of apoptosis in human A549 cells assessed as necrotic cells at 5 nM for 24 hrs by annexin V-FITC/propidium iodide staining-based flow cytometry analysis (reference value: 0.03%); format: functional
[5] = Metabolic stability in Sprague-Dawley rat liver microsomes assessed as compound remaining after 90 mins in presence of NADPH by UV-based HPLC-MS/MS analysis; format: ADME, microsome; conditions: read-out: Stability
A549 [6] = test: Cell cycle arrest in human A549 cells assessed as increase in accumulation of cells at G2/M phase at 1 nM after 24 hrs by propidium iodide staining-based flow cytometry method; format: functional
A549 [7] = test: Induction of apoptosis in human A549 cells assessed as late apoptotic cells at 5 nM for 48 hrs by annexin V-FITC/propidium iodide staining-based flow cytometry analysis; format: functional
[8] = Metabolic stability in Sprague-Dawley rat liver microsomes assessed as compound remaining after 120 mins in presence of NADPH by UV-based HPLC-MS/MS analysis; format: ADME, microsome; conditions: read-out: Stability
A549 [9] = test: Disruption of mitochondrial membrane potential in human A549 cells at 5 nM after 24 hrs by JC1 staining-based flow cytometry method (reference value: 0.62%); format: functional
A549 [10] = test: Induction of apoptosis in human A549 cells assessed as necrotic cells at 10 nM for 24 hrs by annexin V-FITC/propidium iodide staining-based flow cytometry analysis (reference value: 0.03%); format: functional
A549 [11] = test: Induction of apoptosis in human A549 cells assessed as downregulation of Bcl-xl expression at 1 to 10 nM after 24 to 48 hrs by Western blot analysis; format: functional, cell-based
A549 [12] = test: Induction of apoptosis in human A549 cells assessed as live cells at 10 nM for 48 hrs by annexin V-FITC/propidium iodide staining-based flow cytometry analysis (reference value: 99.01%); format: functional
A549 [13] = test: Induction of apoptosis in human A549 cells assessed as live cells at 5 nM for 48 hrs by annexin V-FITC/propidium iodide staining-based flow cytometry analysis (reference value: 99.01%); format: functional
[14] = Antiproliferative activity against human HepG2/DOX cells after 48 hrs by MTT assay; format: functional, cell-based
A549 [15] = test: Disruption of mitochondrial membrane potential in human A549 cells assessed as intact mitochondrial membrane at 1 nM after 24 hrs by JC1 staining-based flow cytometry method (reference value: 99.18%); format: functional
HepG2 = test: cells; conditions: Homo sapiens, HepG2, 48 h
MGC-803 = test: Antiproliferative activity against human MGC803 cells after 48 hrs by MTT assay; conditions: MGC-803, 48 h
[16] = Resistance index, ratio of IC50 for human HepG2/DOX cells to IC50 for human HepG2 cells; format: functional
A549 [17] = test: Induction of apoptosis in human A549 cells assessed as early apoptotic cells at 1 nM for 48 hrs by annexin V-FITC/propidium iodide staining-based flow cytometry analysis (reference value: 0.97%); format: functional
A549 [18] = test: Disruption of mitochondrial membrane potential in human A549 cells at 1 nM after 24 hrs by JC1 staining-based flow cytometry method (reference value: 0.62%); format: functional
A549 [19] = test: Induction of apoptosis in human A549 cells assessed as live cells at 1 nM for 48 hrs by annexin V-FITC/propidium iodide staining-based flow cytometry analysis (reference value: 99.01%); format: functional
A549 [20] = test: Induction of apoptosis in human A549 cells assessed as necrotic cells at 10 nM for 48 hrs by annexin V-FITC/propidium iodide staining-based flow cytometry analysis (reference value: 0.02%); format: functional
Sus scrofa = species on record: Sus scrofa; test: (§1) Inhibition of porcine brain tubulin polymerization measured every 60 seconds for 90 mins by DAPI staining-based fluorescence assay
[21] = as §1; design: species or system Sus scrofa
A549 [22] = test: Disruption of mitochondrial membrane potential in human A549 cells after 24 hrs by JC1 staining-based flow cytometry method; format: functional, cell-based
[23] = Metabolic stability in Sprague-Dawley rat liver microsomes assessed as compound remaining after 30 mins in presence of NADPH by UV-based HPLC-MS/MS analysis; format: ADME, microsome; conditions: read-out: Stability
[24] = Metabolic stability in Sprague-Dawley rat liver microsomes assessed as compound remaining after 150 mins in presence of NADPH by UV-based HPLC-MS/MS analysis; format: ADME, microsome; conditions: Sprague-Dawley, liver microsomes, read-out: Stability
A549 [25] = test: Induction of apoptosis in human A549 cells assessed as live cells at 10 nM for 24 hrs by annexin V-FITC/propidium iodide staining-based flow cytometry analysis (reference value: 99.15%); format: functional
A549 [26] = test: Induction of apoptosis in human A549 cells assessed as early apoptotic cells at 10 nM for 24 hrs by annexin V-FITC/propidium iodide staining-based flow cytometry analysis (reference value: 0.82%); format: functional
A549 [27] = test: Induction of apoptosis in human A549 cells assessed as necrotic cells at 1 nM for 48 hrs by annexin V-FITC/propidium iodide staining-based flow cytometry analysis (reference value: 0.02%); format: functional
RKO = test: Antiproliferative activity against human RKO cells after 48 hrs by MTT assay
LoVo = test: Antiproliferative activity against human LoVo cells after 48 hrs by MTT assay
A549 [28] = test: Disruption of mitochondrial membrane potential in human A549 cells at 10 nM after 24 hrs by JC1 staining-based flow cytometry method (reference value: 0.62%); format: functional
A549 [29] = test: Cell cycle arrest in human A549 cells assessed as increase in accumulation of cells at G2/M phase at 5 to 10 nM after 24 hrs by propidium iodide staining-based flow cytometry method; format: functional
A549 [30] = test: Induction of apoptosis in human A549 cells assessed as upregulation of Bad expression at 1 to 10 nM after 24 to 48 hrs by Western blot analysis; format: functional, cell-based
A549 [31] = test: Induction of apoptosis in human A549 cells assessed as early apoptotic cells at 5 nM for 48 hrs by annexin V-FITC/propidium iodide staining-based flow cytometry analysis (reference value: 0.97%); format: functional
MCF7 = test: cells; conditions: Homo sapiens, MCF7, 48 h
A549 [32] = test: Induction of apoptosis in human A549 cells assessed as late apoptotic cells at 5 nM for 24 hrs by annexin V-FITC/propidium iodide staining-based flow cytometry analysis; format: functional
A549 [33] = test: Induction of apoptosis in human A549 cells assessed as downregulation of Bcl2 expression at 1 to 10 nM after 24 to 48 hrs by Western blot analysis; format: functional, cell-based
A549 [34] = test: Induction of microtubule disruption in human A549 cells at 5 to 10 nM after 8 to 24 hrs by Hoechst 33342 staining-based laser scanning confocal immunofluorescence microscopic analysis; format: cell-based

Structure (SMILES): C=C(c1ccc(OC)c(O)c1)c1cc(OC)c(OC)c([Se]C)c1
- Activity (A549 [1]): 0.01%
- remaining at 1 h [2]: 62.3%
- Activity (A549 [3]): 9.14%
- Activity (A549 [4]): 1.69%
- remaining at 1.5 h [5]: 44.1%
- Activity (A549 [6]): 50%
- Activity (A549 [7]): 24.73%
- remaining at 2 h [8]: 33.4%
- Activity (A549 [9]): 42.63%
- Activity (A549 [10]): 0.08%
- Activity (A549 [11]): Active
- Activity (A549 [12]): 23.45%
- Activity (A549 [13]): 49.13%
- IC50 [14]: 20.3 nM
- Activity (A549 [15]): 86.88%
- IC50 (HepG2): 3 nM
- IC50 (MGC-803): 9 nM
- Ratio IC50 [16]: 6.8
- Activity (A549 [17]): 15.79%
- Activity (A549 [18]): 12.78%
- Activity (A549 [19]): 80.49%
- Activity (A549 [20]): 13.55%
- inhibition (Sus scrofa): Dose-dependent effect
- IC50 [21]: 1380 nM
- Activity (A549 [22]): Dose-dependent effect
- remaining at 0.5 h [23]: 81.1%
- remaining at 2.5 h [24]: 25.8%
- Activity (A549 [25]): 48.49%
- Activity (A549 [26]): 49.48%
- Activity (A549 [27]): 0.86%
- IC50 (RKO): 11 nM
- IC50 (LoVo): 9 nM
- Activity (A549 [28]): 90.78%
- Activity (A549 [29]): 70%
- Activity (A549 [30]): Active
- Activity (A549 [31]): 15.69%
- IC50 (MCF7): 27 nM
- Activity (A549 [32]): 2.52%
- Activity (A549 [33]): Active
- Activity (A549 [34]): Active
